From patent US8394821B2, “Activated blood coagulation factor inhibitor” (Daiichi Sankyo Company, Limited, priority 2009, dated 2013)
Converted amounts (≈) assume the structure as drawn. Where two headings read alike, the source gives them in different places.

Assays:
Type in all cases: physicochemical
[1] = Evaluation of chemical stability (dry heat, wet heat, light irradiation; HPLC residue); conditions: for Residue (%, mean ± SD) Light irradiation (Lx · hr) 60 × 10^4: light irradiation 60 × 10^4 Lx · hr; for Residue (%, mean ± SD) Light irradiation (Lx · hr) 120 × 10^4: light irradiation 120 × 10^4 Lx · hr; for Residue (%, mean ± SD) 50° C., 0% RH 1 week later / Residue (%, mean ± SD) 50° C., 0% RH 2 week later: dry heat 50° C.; for Residue (%, mean ± SD) 50° C., 0% RH 2 week later / Residue (%, mean ± SD) 40° C., 75% RH 2 week later: 2 weeks; for Residue (%, mean ± SD) 40° C., 75% RH 1 week later / Residue (%, mean ± SD) 40° C., 75% RH 2 week later: wet heat 40° C.
Method: Approximately 2 mg of each of various samples prepared in Example 1 was weighed into an aluminum pan for thermal analysis and stored under dry heat (50° C., 0% RH) or wet heat (40° C., 75% RH) conditions. 1 week or 2 weeks later, each sample was collected, and the weight change was measured. Then, the whole amount was dissolved in 20 mL of eluent and analyzed by HPLC. For photolysis samples, approximately 10 mg of each sample was weighed into a weighing bottle and stored at 25° C. in a light irradiator. After irradiation at 600,000 or 1,200,000 Lx/hr, the sample was collected, and the weight change was measured. Then, the whole amount was dissolved in 100 mL of eluent and analyzed by HPLC. The residue proportion was determined from the ratio between the concentration of the sample solution calculated from a calibration curve prepared before measurement and the theoretical concentration calculated from weight measurement.
Measurement conditions of HPLC (column: Waters Symmetry C18 4.6 mm×150 mm, eluent: 0.05 M phosphate buffer (pH 5.0): acetonitrile=80:20, flow rate: 1 mL/min., detection: UV 220 nm, column temperature: 40° C.)

[2] = Evaluation of crystal stability (storage at 25° C. at adjusted relative humidity); conditions: for 0% RH Weight change (%) / 52% RH Weight change (%) / 93% RH Weight change (%): 25° C., 3-day storage
Method: Approximately 50 mg of each of various samples prepared in Example 1 was placed in a weighing bottle and stored at 25° C. in a desiccator whose relative humidity was adjusted to 0%, 52%, or 93% by a saturated salt solution method (silica gel, Mg(NO3)2, KNO3). […]

[3] = Evaluation of solubility (37° C., 30 min, HPLC); conditions: thermodynamic from solid
Method: A supersaturated amount of each sample was placed in a 12-mL test tube, and 3 mL of a test solution (water, Japanese Pharmacopoeia disintegration test solution No. 1 (JP1), and Japanese Pharmacopoeia disintegration test solution No. 2 (JP2)) was added thereto. The test tube was incubated in a constant-temperature water bath at 37° C. The test tube was shaken using a vortex mixer for 30 seconds every 5 minutes. 30 minutes later, the supernatant was filtered through a membrane filter (pore size: 0.45 μm), appropriately diluted with eluent, and then analyzed by HPLC under the following conditions. The concentration was calculated from a calibration curve prepared before measurement.
Measurement conditions of HPLC (column: Waters Symmetry C18 4.6 mm×150 mm, eluent: 0.05 M phosphate buffer (pH 5.0): acetonitrile=70:30, flow rate: 1 mL/min., detection: UV 220 nm, column temperature: 40° C.)

[4] = Moisture absorption and desorption characteristics (microbalance, water vapor adsorption apparatus); conditions: 25° C., 10-90% RH
Method: Various samples prepared in Example 1 were separately placed in quartz holders and measured for their moisture absorption and desorption behavior under the following conditions using a microbalance.
Moisture absorption and desorption behavior measurement conditions (sample volume: approximately 20 mg, measurement range: 10-90% RH, measurement temperature: 25° C., variable: within 0.03%, varying length of time: 10 min., apparatus: VTI atmospheric pressure-type automatic water vapor adsorption apparatus SGA-100)

Row | SMILES | Light irradiation Color ([1]; 25° C., after light irradiation) | Residue (%, mean ± SD) Light irradiation (Lx · hr) 60 × 10^4 ([1]; 25° C.) [%] | Residue (%, mean ± SD) Light irradiation (Lx · hr) 120 × 10^4 ([1]; 25° C.) [%] | Residue (%, mean ± SD) 50° C., 0% RH 1 week later [1] [%] | Residue (%, mean ± SD) 50° C., 0% RH 2 week later [1] [%] | Residue (%, mean ± SD) 40° C., 75% RH 1 week later [1] [%] | Residue (%, mean ± SD) 40° C., 75% RH 2 week later [1] [%] | 0% RH Weight change (%) [2] [%] | 52% RH Weight change (%) [2] [%] | 93% RH Weight change (%) [2] [%] | solubility at 30 min ([3]; pH 1.2, simulated gastric fluid, Japanese Pharmacopoeia disintegration test solution No. 1, 37° C., read-out: JP1 (Solubility (μg/mL))) [µg/mL] | solubility at 30 min ([3]; pH 6.8, aqueous buffer, Japanese Pharmacopoeia disintegration test solution No. 2, 37° C., read-out: JP2 (Solubility (μg/mL))) [µg/mL] | solubility at 30 min ([3]; water, 37° C., read-out: Water (Solubility (μg/mL))) [µg/mL] | moisture absorption and desorption characteristics/behavior (in words) [4] | stability on storage: weight and crystal form (in words) ([2]; stored for 3 days under three standard relative humidity conditions at 25° C.)
1 | CN1CCc2nc(C(=O)N[C@@H]3C[C@@H](C(=O)N(C)C)CC[C@@H]3NC(=O)C(=O)Nc3ccc(Cl)cn3)sc2C1 [Compound A, N^1-(5-chloropyridin-2-yl)-N^2-((1S,2R,4S)-4-[(dimethylamino)carbonyl]-2-{[(5-methyl-4,5,6,7-tetrahydrothiazolo[5,4-c]pyridin-2-yl)carbonyl]amino}cyclohexyl)ethanediamide] | Changed | 92.0 ± 0.3 | 82.8 ± 0.4 | 99.3 ± 0.4 | 97.5 ± 0.7 | 99.8 ± 0.3 | 98.7 ± 1.3 | −0.32 | −0.22 | −0.04 | > 2000 | 49.8 (≈ 90.9 µM) | 47.5 (≈ 86.7 µM) | – | –
2 | CN1CCc2nc(C(=O)N[C@@H]3C[C@@H](C(=O)N(C)C)CC[C@@H]3NC(=O)C(=O)Nc3ccc(Cl)cn3)sc2C1.O.O=C(O)C(O)C(O)C(=O)O [compound II, N^1-(5-chloropyridin-2-yl)-N^2-((1S,2R,4S)-4-[(dimethylamino)carbonyl]-2-{[(5-methyl-4,5,6,7-tetrahydrothiazolo[5,4-c]pyridin-2-yl)carbonyl]amino}cyclohexyl)ethanediamide(+)-tartrate monohydrate] | – | 98.2 ± 0.9 | 95.0 ± 1.2 | 100.4 ± 0.7 | 100.1 ± 0.7 | 100.1 ± 0.7 | 100.1 ± 0.3 | −0.35 | 0.05 | 0.31 | – | – | – | favorable moisture absorption and desorption characteristics | stable without change both in weight and in crystal form
